Results from publication PMC8044163, “Vitamin D and lumisterol derivatives can act on liver X receptors (LXRs)” (Scientific Reports, 2021).
Read-outs that look alike come from different tables or passages of the source.

Experiments:
LBD of LXRα = target: T1, LBD of LXRα (Homo sapiens, UniProt Q13133); assay: LanthaScreen TR-FRET LXRα coactivator assay (LXR binding assay); assay type: biochemical
T1 construct: after addition of LXRα/β-LBD to the derivatives; purchased Thermo Fisher Scientific
T1 sequence (Q13133 209-447 limits assumed): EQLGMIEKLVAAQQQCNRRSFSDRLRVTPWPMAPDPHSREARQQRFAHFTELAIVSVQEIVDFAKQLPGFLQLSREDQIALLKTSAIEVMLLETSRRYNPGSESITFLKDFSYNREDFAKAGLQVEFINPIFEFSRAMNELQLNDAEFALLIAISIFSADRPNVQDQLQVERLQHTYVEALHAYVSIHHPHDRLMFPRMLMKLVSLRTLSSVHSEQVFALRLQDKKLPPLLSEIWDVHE
Method: (§1) Binding assays of graded concentrations of vitamin D3 or lumisterol hydroxyderivatives to LXRα/β were performed using the LanthaScreen TR-FRET LXRα/β Coactivator kit (Thermo Fisher Scientific, Inc., Waltham, MA) following the manufacture’s protocol. Briefly, after addition of LXRα/β-LBD to the derivatives, a mixture of peptide (Fluorescein-TRAP220/DRIP-2 for LXRα or Fluorescein-D22 for LXRβ) and antibody (Tb-anti-GST) was added to the reaction followed by incubation in room temperature for 2 h. TR-FRET ratio was calculated by dividing the emission at 520 nm by the emission at 495 nm using Synergy neo2 (BioTek, Winooski, VT).

LBD of LXRβ = target: T2, LBD of LXRβ (Homo sapiens, UniProt P55055); assay: LanthaScreen TR-FRET LXRβ coactivator assay (LXR binding assay); assay type: biochemical
T2 construct: purchased Thermo Fisher Scientific
T2 sequence (P55055 222-460 limits assumed): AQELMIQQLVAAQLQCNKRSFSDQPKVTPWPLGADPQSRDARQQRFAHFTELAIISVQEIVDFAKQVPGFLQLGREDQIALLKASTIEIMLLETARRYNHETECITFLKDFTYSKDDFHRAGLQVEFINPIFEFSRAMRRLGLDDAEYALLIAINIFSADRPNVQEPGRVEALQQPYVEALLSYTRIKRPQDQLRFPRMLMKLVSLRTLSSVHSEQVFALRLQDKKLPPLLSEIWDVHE
Method: as §1

genes downstream of LXR = assay: qPCR of genes downstream of LXR in murine dermal fibroblasts; assay type: cell-based, mouse; details: 10^–7 M, 24 h
Method: All animal studies followed guidelines outlined by the NIH Guide for the Care and Use of Laboratory Animals and protocols were approved by the Institutional Animal Care and Use Committee at the NIEHS or the UAB. The study was carried out in compliance with the ARRIVE guidelines (http://www.nc3rs.org.uk/page.asp?id=1357). Skin samples from newborn C57BL/6 mice were collected at the NIEHS. Dermal fibroblasts were isolated from the skin of newborn mice, 1–2 day old. Briefly, we followed the protocols described previously. The skin was washed in PBS, cut into smaller pieces and incubated in 2.4 U/ml of dispase II (Roche) overnight at 4 °C. The dermis was separated from the epidermis and incubated in 0.1% collagenase (Roche) at 4 °C overnight. Next day, it was cut into smaller pieces and incubated for 1 h in 0.25% Trypsin (CellGrow) at 37 °C. Single cell suspension was prepared by pipetting and draining through a cell strainer. After centrifugation, cell pellets were suspended in DMEM medium containing 10% charcoal-stripped fetal bovine serum (cFBS), mouse fibroblasts growth factor (FGF) and 1% antibiotic, and inoculated into tissue culture dishes (Midwest Scientific, TPP). Cells, in early passages, from different mice were pooled together to provide representative samples for experiments. Fibroblasts were cultured in Petri dishes (10 cm in diameter) in DMEM and 10% cFBS and triplicate semi-confluent cultures were treated as described.
RNA isolated from either fibroblasts, HaCaT cells or brain was submitted for cDNA synthesis (High Capacity cDNA Reverse Transcription Kit with RNase Inhibitor, Applied Biosystems) following the manufacturers’ protocols. RT-PCR was carried out using Cyber green, in triplicates; as previously described. Approximately, 750 ng of cDNA was used for PCR reactions. GAPDH and CIC-B were used as internal controls. Primer sequences are listed in Supplementary Table 27. Data were analyzed using GraphPad Prism statistical software one way ANOVA or t-test, where appropriate; *p < 0.05; **p < 0.01; ***p < 0.001.

LXRα = target: T3, LXRα (Homo sapiens, UniProt Q13133); assay: Ligand induced translocation of LXRα to the nucleus, immunofluorescence in HaCaT; assay type: cell-based; details: 10^−7 M, 24 h
T3 construct: endogenous in cells; host or cells: HaCaT keratinocytes
T3 sequence (Q13133 1-447): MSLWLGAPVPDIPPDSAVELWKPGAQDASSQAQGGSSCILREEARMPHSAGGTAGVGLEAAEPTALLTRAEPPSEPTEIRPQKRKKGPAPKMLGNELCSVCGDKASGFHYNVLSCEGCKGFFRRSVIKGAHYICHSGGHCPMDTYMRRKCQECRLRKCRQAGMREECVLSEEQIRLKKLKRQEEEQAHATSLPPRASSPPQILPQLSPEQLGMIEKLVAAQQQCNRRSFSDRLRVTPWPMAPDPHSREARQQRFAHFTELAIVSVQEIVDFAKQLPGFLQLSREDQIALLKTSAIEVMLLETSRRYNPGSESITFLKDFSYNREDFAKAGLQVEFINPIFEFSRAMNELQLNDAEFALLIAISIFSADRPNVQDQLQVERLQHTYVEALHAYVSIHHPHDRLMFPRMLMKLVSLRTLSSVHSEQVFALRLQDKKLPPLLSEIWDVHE
Method: (§2) HaCaT cells were plated in DMEM plus 5% cFBS either on a sterile glass cover slip placed in a well of a 6-well plates for immunofluorescence (IF) assays or TPP Petri dishes for image-stream flow cytometry, and treated with 10^–7 M D3- or L3-hydroxyderivatives or 0.1% ethanol (vehicle) as a negative control was added to each well, and the cells were incubated for 12 or 24 h at 37 °C with 5% CO2. For IF the cells were fixed in 4% paraformaldehyde for 15 min, incubated in 0.5% Triton X-100 in phosphate-buffered saline (PBS) for 5 min, and washed 3 times in PBS. After blocking with 2% bovine serum albumin (BSA) in PBS for 1 h at room temperature, the cells were treated with an anti-LXRα antibody (Novus Biologicals, LLC, Centennial, CO) at 1:200 in PBS supplemented with 2% BSA overnight in 4 °C. After washing the slides were incubated with a mouse anti-rabbit IgG-FITC (Santa Cruz Biotechnology, Inc, Dallas, TX) at 1:200 dilution for 1.5 h at 37 °C. After washing the slides were mounted using propidium iodide (PI) (Vector Labs, Burlingame, California) as a nuclear counterstain. The slides were examined using a KEYENCE America BZ-X710 Fluorescence Microscope (Itasca, IL). The images were subsequently analyzed using the JACoP plugin for colocalization analysis with ImageJ[74]. Five separate high-power field (40×) images were converted to grayscale and analyzed for each condition. Manders’ coefficient (M1), calculated using a preset threshold, was used to quantify the degree of colocalization between PI and LXRα with 0 representing no colocalization, and 1 representing perfect colocalization.

LXRα/β = assay: Ligand induced translocation of LXRα/β to the nucleus, imaging flow cytometry in HaCaT; assay type: cell-based, human; details: 10^–7 M, 12 h
Method: as §2
For Image Stream II (Amnis, Seattle, WA, USA) cytometer analyses, HaCaT cells were detached and processed as previously described. The cells were fixed with paraformaldehyde and permeabilized in methanol containing buffer[78],[79] and Hoechst stain (r37165, ThermoFisher) and rabbit antibodies to LXRα/β (sc 377260, AF 647, SantaCruz) or VDR (sc-13133, AF 488, SantaCruz) as described previously. Data were analyzed using IDEAS software (Amnis, Seattle, WA, USA).

VDR = target: T4, VDR (Homo sapiens, UniProt P11473); assay: Translocation of VDR to the nucleus, imaging flow cytometry in HaCaT; assay type: cell-based; details: 10^–7 M, 12 h
T4 construct: endogenous in cells; host or cells: HaCaT keratinocytes
T4 sequence (P11473 1-427): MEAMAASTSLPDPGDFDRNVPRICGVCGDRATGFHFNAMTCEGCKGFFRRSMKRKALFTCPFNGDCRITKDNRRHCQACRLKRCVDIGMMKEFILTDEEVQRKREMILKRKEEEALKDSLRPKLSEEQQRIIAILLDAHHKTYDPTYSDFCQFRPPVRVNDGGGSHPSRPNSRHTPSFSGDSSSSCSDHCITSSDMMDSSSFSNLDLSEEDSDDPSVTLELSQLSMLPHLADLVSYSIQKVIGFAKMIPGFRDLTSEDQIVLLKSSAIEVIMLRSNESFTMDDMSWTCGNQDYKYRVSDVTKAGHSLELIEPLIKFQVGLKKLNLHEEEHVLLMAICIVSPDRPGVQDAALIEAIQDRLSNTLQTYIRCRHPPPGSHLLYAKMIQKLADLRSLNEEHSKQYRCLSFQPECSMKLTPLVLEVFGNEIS

[1] = system: LXR-response element (LXRE)-driven reporter in CHO cells; assay: LXRE-driven luciferase reporter assay in CHO cells; assay type: cell-based; details: 10^–7 M, CHO and HaCaT cells (Fig. 4C)
Method: The effects of vitamin D3 and L3 hydroxyderivatives were tested on the LXRE transcriptional activity using pGreenFire1-LXRE-in-ApoE Lentivirus (System Biosciences, Palo Alto, CA). This plasmid was transduced in CHO and HaCaT cells following the manufacture’s protocol and the cells used as a stable LXRE expressed tool. Briefly, the virus was transduced into the cells using TransDux MAX Lentivirus Transduction Enhancer (System Biosciences, Palo Alto, CA) and screened to select the transduced cells using puromycin. The transduced cells were treated with the compounds for 24 h in media containing 5% cFBS (charcoal-treated fetal bovine serum) and the luminescence was read by ONE-Glo Luciferase Assay System (Promega, Madison, WI) using Cytation 5 (BioTek, Winooski, VT).

[2] = agonist, average values, read-out: LXRα EC50
[3] = agonist, average values, read-out: LXRβ EC50

CC(CC[C@H](O)C(C)C)[C@H]1CC[C@H]2C3=CC=C4C[C@@H](O)CCC4(C)[C@@H]3CC[C@]12C (stereo partly drawn) [24(OH)L3]
EC50 (LBD of LXRα; [2]): 3600 nM
EC50 (LBD of LXRβ; [3]): 1300 nM

CC(C)CCC[C@](C)(O)[C@H]1CC[C@H]2C3=CC=C4C[C@@H](O)CC[C@@]4(C)[C@@H]3CC[C@@]21C [20(OH)L3]
EC50 (LBD of LXRα; [2]): 1800 nM
EC50 (LBD of LXRβ; [3]): 21 nM
Abca1 expression (genes downstream of LXR): inhibited
Abcg8 expression (genes downstream of LXR): inhibited
ApoE (apolipoprotein E) expression (genes downstream of LXR): inhibited
Cyp7a1 expression (genes downstream of LXR): inhibited
Lpl (lipoprotein lipase) expression (genes downstream of LXR): inhibited
translocation of LXRα to the nucleus (immunofluorescence, Manders' coefficient) (LXRα): induced translocation
translocation of LXRα/β from the cytoplasm to the nucleus (LXRα/β): increased translocation
translocation of VDR from the cytoplasm to the nucleus (VDR): increased translocation

CC(C)CCC[C@@H](C)[C@H]1CC[C@H]2C3=CC=C4C[C@@H](O)CC[C@@]4(C)[C@@H]3CC[C@]12C [L3, lumisterol]
EC50 (LBD of LXRα; [2]): 250 nM
EC50 (LBD of LXRβ; [3]): 110 nM

C=C1CC[C@H](O)C/C1=C/C=C1\CCC[C@]2(C)[C@@H]([C@H](C)CCCC(C)C)CC[C@@H]12 [D3, Vitamin D3, reference compound]
EC50 (LBD of LXRα): 760 nM
EC50 (LBD of LXRβ): 890 nM

C=C1CC[C@H](O)C/C1=C/C=C1\CCC[C@@]2(C)[C@H]1CC[C@@H]2[C@@](C)(O)CCCC(C)(C)O [20,25(OH)2D3]
EC50 (LBD of LXRα; [2]): 350 nM
EC50 (LBD of LXRβ; [3]): 2100 nM

CC(CCCC(C)(C)O)[C@H]1CC[C@H]2C3=CC=C4C[C@@H](O)CC[C@@]4(C)[C@@H]3CC[C@]12C (stereo partly drawn) [25(OH)L3]
EC50 (LBD of LXRα; [2]): 140 nM
EC50 (LBD of LXRβ; [3]): 1900 nM

C=C1C(=CC=C2CCCC3(C)C2CCC3C(C)(O)CCC(O)C(C)C)CC(O)CC1O (stereo not drawn) [1,20,24(OH)3D3]
LXRE luciferase (transcriptional) activity [1]: strongest stimulatory effects
